Measured values reported in patent publication US11008313B2, “Substituted 1-methyl-1,2,3,4-tetrahydroisoquinoline molecules as PCSK9 allosteric binders” (Merck Sharp & Dohme Corp., priority 2016, dated 2021).
Like-named read-outs stand apart in the source and are kept apart here.

Columns and labels:
[1] = biological target: T1, PCSK9 (Homo sapiens, UniProt Q8NBP7); assay: Fluorescence polarization competition binding assay (probe: compound of Example 57); details: 2 μM PCSK9, 50 nM compound of Example 57 as probe, overnight incubation; read-out: FP IC
How it was run: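 Competition fluorescence-polarization binding: 2 μM PCSK9 with 50 nM fluorescent probe in 20 mM HEPES pH 7.5, 150 mM NaCl, 1 mM CaCl2, 0.005% P-20, incubated with test compound overnight in the dark. Anisotropy read; % inhibition relative to DMSO wells and probe-without-PCSK9 wells.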

[2] = biological target: T2, HEK293 cells stably overexpressing PCSK9 (Homo sapiens, UniProt Q8NBP7); assay: Protein degradation assay (Western Blot/Sally Sue assay); type: cell-based; details: 24 hrs compound treatment, serum free DMEM
T2 construct: expressed in transfected cells
Protocol: Samples were run on the Sally Simple Western system from ProteinSimple (San Jose, Calif.) using default assay conditions. Briefly, 5×10^4 HEK293 cells stably overexpressing PCSK9 were seeded into Collagen I coated 96 well plates and allowed to recover overnight at 37° C. with 5% CO2. After 24 hrs of compound treatment in serum free DMEM cell culture medium, cells were washed with PBS and lysed in 100 ul RIPA buffer (Teknova) supplemented with protease inhibitors and subsequently mixed with fluorescent standards as per manufacturer's specifications, followed by denaturation at 95° C. for 5 minutes. Anti-PCSK9 mAb antibody (Abbomax, Cat. No. 601-650) was used for PCSK9 detection. The reported DC50 values represent the effective concentration of compound to lower PCSK9 protein levels, pro and mature, by 50%.

[3] = biological target: T1, PCSK9; assay: Differential scanning calorimetry (DSC) assay, direct binding / thermal stabilization of PCSK9; details: Tm(with compound)−Tm(no compound); 2 μM PCSK9, 300 μM test compound
How it was run: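 Thermal stabilization of 2 μM PCSK9 with or without 300 μM compound in 25 mM HEPES pH 7.5, 150 mM NaCl, 1 mM CaCl2, 3.75% DMSO. Sample heated 20–80 °C at 200 °C/hr against buffer reference. Protein Tm derived from each thermogram.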

T1 sequence (Q8NBP7 153-692): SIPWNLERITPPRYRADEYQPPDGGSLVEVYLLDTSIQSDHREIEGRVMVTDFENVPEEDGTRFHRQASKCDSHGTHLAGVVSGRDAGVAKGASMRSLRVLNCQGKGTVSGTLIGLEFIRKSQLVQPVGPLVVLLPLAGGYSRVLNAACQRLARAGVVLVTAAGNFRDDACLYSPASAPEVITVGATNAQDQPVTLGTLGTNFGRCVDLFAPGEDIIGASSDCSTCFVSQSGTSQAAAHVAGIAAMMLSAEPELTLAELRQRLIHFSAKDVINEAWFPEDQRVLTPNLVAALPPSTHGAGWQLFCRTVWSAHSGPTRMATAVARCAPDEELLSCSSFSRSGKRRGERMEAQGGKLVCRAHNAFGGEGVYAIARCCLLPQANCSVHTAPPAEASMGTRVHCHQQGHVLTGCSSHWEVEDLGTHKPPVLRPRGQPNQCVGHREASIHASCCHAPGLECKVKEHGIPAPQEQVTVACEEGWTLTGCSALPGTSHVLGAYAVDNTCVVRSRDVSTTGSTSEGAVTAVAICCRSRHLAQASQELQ

IC50 [1] [nM] | DC50 ([2]; mature PCSK9 protein level lowered by 50%, read-out: PCSK9 DC50 (Mature)) [nM] | DC50 ([2]; pro PCSK9 protein level lowered by 50%, read-out: PCSK9 DC50 (Pro)) [nM] | ΔTm at 300 µM [3] [°C] | DSC ΔTm [3] [°C] | Compound
76.9 | 8520 | 1360 |  |  | C[C@]1(CC(=O)Nc2nccs2)NCCc2cc(OCCOCCOCCNC(=O)CC34CC5CC(CC(C5)C3)C4)c(Oc3ccc(-c4ccc(C(=O)O)cc4)c(F)c3)cc21 [Example 94, 4-(((R)-6-(2-(2-(2-(2-((3r,5r,7r)-adamantan-1-yl)acetamido)ethoxy)ethoxy)ethoxy)-1-methyl-1-(2-oxo-2-(thiazol-2-ylamino)ethyl)-1,2,3,4-tetrahydroisoquinolin-7-yl)oxy)-2′-fluoro-[1,1′-biphenyl]-4-carboxylic acid]
1240 |  |  | 6.21 |  | COc1cc2c3cc1Oc1ccc(C(=O)O)c(c1)OC/C=C\CCc1csc(n1)NC(=O)C[C@@]3(C)NCC2 [Example 2, (R,72Z)-36-methoxy-31-methyl-5-oxo-31,32,33,34-tetrahydro-2,13-dioxa-6-aza-7(2,4)-thiazola-3(7,1)-isoquinolina-1(1,3)-benzenacyclotridecaphan-10-ene-14-carboxylic acid]
426 |  |  | 6.89 |  | C[C@]1(CC(=O)Nc2nccs2)NCCc2cc(OCCn3cc(CCCCCCCCC(=O)O)nn3)c(Oc3ccc(C(=O)O)c(F)c3)cc21 [Example 44, (R)-4-((6-(2-(4-(8-carboxyoctyl)-1H-1,2,3-triazol-1-yl)ethoxy)-1-methyl-1-(2-oxo-2-(thiazol-2-ylamino)ethyl)-1,2,3,4-tetrahydroisoquinolin-7-yl)oxy)-2-fluorobenzoic acid]
418 |  |  | 5.45 |  | COc1ccc(-n2nc(-c3cn(CCOc4cc5c(cc4Oc4ccc(C(=O)O)c(F)c4)[C@@](C)(CC(=O)Nc4nccs4)NCC5)nn3)cc(C)c2=O)cc1 [Example 43, (R)-2-fluoro-4-((6-(2-(4-(1-(4-methoxyphenyl)-5-methyl-6-oxo-1,6-dihydropyridazin-3-yl)-1H-1,2,3-triazol-1-yl)ethoxy)-1-methyl-1-(2-oxo-2-(thiazol-2-ylamino)ethyl)-1,2,3,4-tetrahydroisoquinolin-7-yl)oxy)benzoic acid]
11.5 |  |  | 2.62 |  | COC(=O)c1cc(-c2ccc(Oc3cc4c(cc3OC)CCN[C@]4(C)CC(=O)Nc3nccs3)cn2)c[nH]1 [Example 17, methyl (R)-4-(5-((6-methoxy-1-methyl-1-(2-oxo-2-(thiazol-2-ylamino)ethyl)-1,2,3,4-tetrahydroisoquinolin-7-yl)oxy)pyridin-2-yl)-1H-pyrrole-2-carboxylate]
522 |  |  | 5.84 |  | COc1cc2c(cc1Oc1ccc(-c3ccc(CC(=O)O)cc3)c(F)c1)[C@@](C)(CC(=O)Nc1nccs1)NCC2 [Example 31, (R)-2-(2′-fluoro-4′-((6-methoxy-1-methyl-1-(2-oxo-2-(thiazol-2-ylamino)ethyl)-1,2,3,4-tetrahydroisoquinolin-7-yl)oxy)-[1,1′-biphenyl]-4-yl)acetic acid]
561 |  |  | 6.99 |  | COc1cc2c(cc1Oc1cc(F)c(C(=O)O)c(F)c1)[C@@](C)(CC(=O)Nc1nccs1)NCC2 [Example 5, (R)-2,6-difluoro-4-((6-methoxy-1-methyl-1-(2-oxo-2-(thiazol-2-ylamino)ethyl)-1,2,3,4-tetrahydroisoquinolin-7-yl)oxy)benzoic acid]
646 |  |  | 6.27 |  | C[C@]1(CC(=O)Nc2nccs2)NCCc2cc(OCCn3cc(COc4ccccc4)nn3)c(Oc3ccc(C(=O)O)c(F)c3)cc21 [Example 47, (R)-2-fluoro-4-((1-methyl-1-(2-oxo-2-(thiazol-2-ylamino)ethyl)-6-(2-(4-(phenoxymethyl)-1H-1,2,3-triazol-1-yl)ethoxy)-1,2,3,4-tetrahydroisoquinolin-7-yl)oxy)benzoic acid]
878 |  |  | 5.82 |  | C[C@]1(CC(=O)Nc2nccs2)NCCc2cc(OCCn3cc(C(O)CN)nn3)c(Oc3ccc(C(=O)O)c(F)c3)cc21 (stereo partly drawn) [Example 55, 4-(((1R)-6-(2-(4-(2-amino-1-hydroxyethyl)-1H-1,2,3-triazol-1-yl)ethoxy)-1-methyl-1-(2-oxo-2-(thiazol-2-ylamino)ethyl)-1,2,3,4-tetrahydroisoquinolin-7-yl)oxy)-2-fluorobenzoic acid]
487 |  |  | 7.06 |  | COc1cc2c(cc1Oc1ccc(C(=O)O)c(F)c1)[C@@](C)(CC(=O)Nc1nccs1)NCC2 [Example 4, (R)-2-fluoro-4-((6-methoxy-1-methyl-1-(2-oxo-2-(thiazol-2-ylamino)ethyl)-1,2,3,4-tetrahydroisoquinolin-7-yl)oxy)benzoic acid]
94.3 |  |  | 7.62 |  | C[C@]1(CC(=O)Nc2nccs2)NCCc2cc(OCc3ccccn3)c(Oc3ccc(-c4ccc(C(=O)O)cc4)c(F)c3)cc21 [Example 18, (R)-2′-fluoro-4′-((1-methyl-1-(2-oxo-2-(thiazol-2-ylamino)ethyl)-6-(pyridin-2-ylmethoxy)-1,2,3,4-tetrahydroisoquinolin-7-yl)oxy)-[1,1′-biphenyl]-4-carboxylic acid]
680 |  |  | 6.15 |  | COC(=O)c1ccc(Oc2cc3c(cc2OCC2CCCCO2)CCN[C@]3(C)CC(=O)Nc2nccs2)cc1F (stereo partly drawn) [Example 72, methyl 2-fluoro-4-(((1R)-1-methyl-1-(2-oxo-2-(thiazol-2-ylamino)ethyl)-6-((tetrahydro-2H-pyran-2-yl)methoxy)-1,2,3,4-tetrahydroisoquinolin-7-yl)oxy)benzoate]
3670 |  |  | 4.29 |  | COc1cc2c3cc1Oc1ccc(C(=O)O)c(c1)OCCCCCCc1csc(n1)NC(=O)C[C@@]3(C)NCC2 [Example 1, (Z)-36-methoxy-31-methyl-5-oxo-31,32,33,34-tetrahydro-2,14-dioxa-6-aza-7(2,4)-thiazola-3(7,1)-isoquinolina-1(1,3)-benzenacyclotetradecaphane-14-carboxylic acid]
395 |  |  |  | 9.14 | C[C@]1(CC(=O)Nc2nccs2)NCCc2cc(OCC3CCCCO3)c(Oc3ccc(C(=O)O)c(F)c3)cc21 (stereo partly drawn) [Example 66, 2-fluoro-4-(((1R)-1-methyl-1-(2-oxo-2-(thiazol-2-ylamino)ethyl)-6-((tetrahydro-2H-pyran-2-yl)methoxy)-1,2,3,4-tetrahydroisoquinolin-7-yl)oxy)benzoic acid]
958 |  |  | 7.28 |  | C[C@]1(CC(=O)Nc2cccc3[nH]ccc23)NCCc2cc(OCC3CCCCO3)c(Oc3ccc(-c4ccc(C(=O)O)cc4)c(F)c3)cc21 (stereo partly drawn) [Example 92, 4′-(((1R)-1-(2-((1H-indol-4-yl)amino)-2-oxoethyl)-1-methyl-6-((tetrahydro-2H-pyran-2-yl)methoxy)-1,2,3,4-tetrahydroisoquinolin-7-yl)oxy)-2′-fluoro-[1,1′-biphenyl]-4-carboxylic acid]
615 |  |  | 5.63 |  | C[C@]1(CC(=O)Nc2nccs2)NCCc2cc(OCCn3cc(C(N)CO)nn3)c(Oc3ccc(C(=O)O)c(F)c3)cc21 (stereo partly drawn) [Example 37, 4-(((1R)-6-(2-(4-(1-amino-2-hydroxyethyl)-1H-1,2,3-triazol-1-yl)ethoxy)-1-methyl-1-(2-oxo-2-(thiazol-2-ylamino)ethyl)-1,2,3,4-tetrahydroisoquinolin-7-yl)oxy)-2-fluorobenzoic acid]
200 |  |  | 6.58 |  | COc1cc2c(cc1Oc1ccc(-c3c[nH]c4c(C(=O)O)cccc34)c(F)c1)[C@@](C)(CC(=O)Nc1nccs1)NCC2 [Example 21, (R)-3-(2-fluoro-4-((6-methoxy-1-methyl-1-(2-oxo-2-(thiazol-2-ylamino)ethyl)-1,2,3,4-tetrahydroisoquinolin-7-yl)oxy)phenyl)-1H-indole-7-carboxylic acid]
450 |  |  | 5.48 |  | COc1cc2c(cc1Oc1ccc(-c3ccc(CCC(=O)O)cc3)cc1)[C@@](C)(CC(=O)Nc1nccs1)NCC2 [Example 30, (R)-3-(4′-((6-methoxy-1-methyl-1-(2-oxo-2-(thiazol-2-ylamino)ethyl)-1,2,3,4-tetrahydroisoquinolin-7-yl)oxy)-[1,1′-biphenyl]-4-yl)propanoic acid]
99.3 |  |  | 8.4 |  | C[C@]1(CC(=O)Nc2nccs2)NCCc2cc(OCC3CCCO3)c(Oc3ccc(-c4ccc(C(=O)O)cc4)c(F)c3)cc21 (stereo partly drawn) [Example 13]
